Assay results from patent US20260015436A1, “ANTIBODIES FOR CHELATED RADIONUCLIDES” (Hoffmann-La Roche Inc., priority 2018, published 2026).

How the values were obtained:
[1] = system: BxPC3 tumors; test: Protocol 93a: efficacy and biodistribution of CEA-PRIT, BxPC3 model; format: in vivo, mice; details: day 47; 30+30 μCi
Procedure: (§1) The bispecific antibodies were compared side-by-side in single- and double-cycle treatment regimens.
(§2) Groups A-G represent the treated mice that were followed up for assessment of efficacy, whereas groups H-L comprise mice that were sacrificed for biodistribution purposes 24 h after their last ^212Pb-DOTAM injection.
For protocol 93a, mice (age 7 weeks) were injected s.c. into the right flank with 5×10^6 BxPC3 cells (passage 33) in 100 μL RPMI/Matrigel. Twelve days after tumor cell injection, mice were sorted into experimental groups with an average tumor volume of 235 mm^3.
(§3) To minimize re-ingestion of radioactive urine/feces after treatment cycle 1, cages were changed 4 hours after ^212Pb-DOTAM administration, and then again at 24 h p.i. […]
(§4) The tumor development in the mice was followed through repeated calipering three times a week. […] The body weight of the animals was measured repeatedly in the same fashion. […]
(§5) Mice in groups H, J, and L were sacrificed and necropsied 24 hours after their first and only injection of ^212Pb-DOTAM; groups I and K were sacrificed and necropsied 24 hours after their second ^212Pb-DOTAM injection. […] Collected samples were weighed and measured for radioactivity, and the percent injected dose per gram of tissue (% ID/g) subsequently calculated, including corrections for decay and background.

[2] = system: LS174T tumors; test: Protocol 93b: efficacy and biodistribution of CEA-PRIT, LS174T model; format: in vivo, mice; details: day 22; 30+30 μCi
Procedure: as §1, §2
For protocol 93b, mice (age 9 weeks) were injected s.c. into the right flank with 1×10^6 LS174T cells (passage 26) in 100 μL DMEM/Matrigel. Three days after tumor cell injection, mice were sorted into experimental groups with an average tumor volume of 150 mm^3.
as §3, §4, §5

[3] = system: BxPC3 tumors; test: Protocol 146: ^212Pb-DOTAM biodistribution and absorbed dose estimation after PRIT; format: in vivo, SCID mice; details: for Mean absorbed dose, RBE = 1 / Mean absorbed dose, RBE = 5: 20 μCi pretargeted ^212Pb-DOTAM, tumor-bearing SCID
Procedure: Protocol 146 was designed to provide in vivo ^212Pb-DOTAM distribution data after PRIT for estimations of the absorbed radioactive dose to tumor and normal tissues, in SCID mice carrying s.c. BxPC3 tumors. The quenching of ^212Pb-DOTAM was performed using Ca (see example 34).
Pretargeting was performed by injection of CEA-DOTAM BsAb, followed 7 days later by the CA. After 24 hours, the ^212Pb-DOTAM was administered. Groups of mice were sacrificed at multiple time points from 5 minutes to 48 hours after the radioactive injection, and blood and organs harvested for radioactive measurement. Excrements were sampled at selected time points by use of metabolic cages to assess the excretion rate of the radioactive compound. Absorbed doses were finally calculated through established methods using the resulting time-activity curves.
Solid xenografts were established by s.c. injection of BxPC3 cells into SCID mice (Envigo) aged 8 weeks.
Mice in group E and F were individually housed (i.e. one mouse per cage) in grilled-floor metabolic cages. Urine and feces were collected from each cage 2, 6, and 24 hours after the radioactive injection, and the individual samples subsequently measured for radioactivity. Mice in group F were transferred to a regular cage 24 hours p.i.
Blood/serum was collected from all mice through retro-orbital bleeding before termination. After euthanasia, the following additional organs and tissues were harvested for radioactivity measurement and calculation of % ID/g: bladder, uterus, small intestine, colon, spleen, pancreas, kidneys, stomach, liver, lung, heart, brain, femoral bone, skin, muscle, abdominal fat, tail, and tumor.
Absorbed doses were calculated following the formalism outlined in Pamphlet No. 21 from the Medical Internal Radiation Dose (MIRD) Committee (Bolch W E, Eckerman K F, Sgouros G, and Thomas S R. J Nucl Med 2009; 50:477-484).
Formally, the absorbed dose D(rT) in a target tissue or region rT is calculated as the time-integral of the activity A(rS, t) multiplied by the absorbed dose rate per unit activity S(rT ←rS), summed over all source regions rS. Given that the vast majority of energy released by the ^212Pb decay chain comes from alpha radiation and furthermore by the much higher biological effectiveness of alpha radiation (as characterized by the relative biological effectiveness, RBE) two approximations were made: • 1. the energy is absorbed locally due to the short range of the alpha particles, which means that only the term S(rT←rT) is considered, and • 2. the contribution from beta and gamma radiation is neglected.
With Δα being the energy released by alpha decays, or rather the sum of the mean energies released by alpha decays in the decay chain of ^212Pb, here expressed in units J/(μCi·h), the absorbed dose in a target tissue or region rT is calculated by the formula: […]
The calculations are based on the composite (average) decay-corrected radioactive concentration at time t, expressed as [% ID/g]t. In a first step, these are transformed into radioactive concentrations as μCi per kg tissue weight for the target tissue rT:
A0[μCi]is the injected activity and λ is the exponential decay rate for ^212Pb, 0.0651 h^−1 (corresponding to the 10.6-hour half-life).
In a second step, the radioactive concentration was integrated over time for each tissue. This was achieved using the “Linear Log Trapezoidal calculation method” in the pharmacokinetic software Phoenix WinNonlin 6.4 (Certara USA, Inc., 100 Overlook Center, Suite 101, Princeton, NJ 08540 USA). The model type “Plasma” was used with uniform weighting.
In the final step, absorbed doses were calculated by multiplying the time integrals of the radioactive concentration by the energy release Δα=170·10^−6J/(μCi·h).

NC(=O)CN1CCN(CC(N)=O)CCN(CC(N)=O)CCN(CC(N)=O)CC1.[212Pb+2] [^212Pb-DOTAM]
tumor growth inhibition (TGI) compared with PBS [1]: 15.8% | TGI compared with PBS [2]: 64.7% | accumulation of radioactivity in tumor ([3]; 5 minutes after injection, pretargeted by CEA-DOTAM BsAb): 17 % ID/g | Mean absorbed dose, RBE = 1 ([3]; Blood): 0.72 Gy | Mean absorbed dose, RBE = 5 ([3]; Blood): 3.60 Gy | Mean absorbed dose, RBE = 1 ([3]; Brain): 0.04 Gy | Mean absorbed dose, RBE = 5 ([3]; Brain): 0.19 Gy | Mean absorbed dose, RBE = 1 ([3]; Colon): 0.43 Gy | Mean absorbed dose, RBE = 1 ([3]; Femoral bone): 0.27 Gy | Mean absorbed dose, RBE = 1 ([3]; Heart): 0.33 Gy | Mean absorbed dose, RBE = 1 ([3]; Liver): 0.22 Gy | Mean absorbed dose, RBE = 1 ([3]; Muscle): 0.29 Gy | Mean absorbed dose, RBE = 1 ([3]; Pancreas): 0.36 Gy | Mean absorbed dose, RBE = 5 ([3]; Pancreas): 1.80 Gy | Mean absorbed dose, RBE = 5 ([3]; Serum): 8.20 Gy | Mean absorbed dose, RBE = 1 ([3]; Skin): 0.47 Gy | Mean absorbed dose, RBE = 1 ([3]; Small intestine): 0.22 Gy | Mean absorbed dose, RBE = 1 ([3]; Spleen): 0.27 Gy | Mean absorbed dose, RBE = 1 ([3]; Stomach): 0.24 Gy | Mean absorbed dose, RBE = 5 ([3]; Stomach): 1.20 Gy | Mean absorbed dose, RBE = 1 ([3]; Tail): 0.54 Gy | Mean absorbed dose, RBE = 1 ([3]; Uterus): 0.61 Gy
